Results as given in patent US9108923B2, “Compounds, compositions, and methods for cancer therapy” (The Broad Institute, Inc., priority 2012, dated 2015).
Where two headings read alike, the source gives them in different places.

Tests used:
[1] = system: H1703; assay: ATP Assay (CellTiter-Glo), cellular ATP levels as surrogate for cell viability; assay type: cell-based, human
Description: (§1) ATP Assay. […] At that time, media was removed and replaced with a solution of CellTiter-Glo reagent (Promega) in PBS. After ten minutes, luminescence was read using an EnVision multilabel plate reader (Perkin-Elmer) and signal intensity was calculated relative to in-plate DMSO control wells.
(§2) We next sought to determine the performance of the synthetic analogs relative to PL in cells. […] As a second assay, effects of compound treatments on ATP levels, a surrogate for cell viability, were measured after 48 hours.
(§3) Assays were performed in 384-well plates on two human cancer cell lines, H1703 (lung) and HeLa (cervix).

[2] = system: HeLa; assay: as above; assay type: cell-based, human
Description: as §1, §2, §3

[3] = system: HeLa cells; assay: Glutathione Assay (GSH/GSSG-Glo), total cellular glutathione; assay type: cell-based, human; settings: 6 h treatment
[4] = system: HeLa cells; assay: Immunofluorescence Detection of Glutathionylated Proteins; settings: for elevation of protein glutathionylation (in words): HeLa cells, monoclonal antibody recognizing glutathione
[5] = system: EJ bladder carcinoma line; assay: Glutathione Assay (GSH/GSSG-Glo), total cellular glutathione; settings: EJ cells, 3 h treatment
[6] = system: H1703 (lung) and HeLa (cervix); assay: ATP assay / cellular toxicity, covering both cell lines; assay type: cell-based, human; settings: two cell lines tested, ATP levels after 48 h
[7] = system: H1703 (lung) and HeLa (cervix); assay: ROS Assay (CM-H2DCF-DA, automated microscopy); assay type: cell-based, human; settings: 90 minutes after compound treatment
[8] = stability at room temperature (remark with characterisation data); assay type: physicochemical
[9] = system: BJ vs. BJ-ELR; assay: Assessment of Cancer/Normal Selective Toxicity (crystal violet); assay type: cell-based, human; settings: crystal violet staining, 48 h
[10] = Homo sapiens, NCI-H1703; Table 1; cellular ATP levels, 48 h; read-out: EC50 H1703
[11] = Homo sapiens, HeLa; Table 1; cellular ATP levels, 48 h; read-out: EC50 HeLa
[12] = Table 2; cellular ATP levels, 48 h; read-out: EC50 H1703
[13] = Table 2; cellular ATP levels, 48 h; read-out: EC50 HeLa
[14] = Homo sapiens, NCI-H1703; Table 2; cellular ATP levels, 48 h; read-out: EC50 H1703
[15] = Homo sapiens, HeLa; Table 2; cellular ATP levels, 48 h; read-out: EC50 HeLa

Which EC50 ([1]; Homo sapiens, NCI-H1703, 48 h, read-out: EC50 H1703) does the source give for `COc1cc(/C=C/C(=O)N2CCC=CC2=O)cc(OC)c1OC` [compound 1, piperlongumine, reference compound] here?
Its EC50 is 2.8 µM.

And the EC50 ([2]; Homo sapiens, HeLa, 48 h, read-out: EC50 HeLa)?
The EC50 was 7.1 µM.

What about the “decrease in total glutathione (in words)” value [3] of the same molecule?
The value was “most effective”.

And the “elevation of protein glutathionylation (in words)” value [4]?
The value was “large and rapid elevations in protein glutathionylation”.

And the “reversal of protein glutathionylation by 0.1 M dithiothreitol” value ([4]; treatment with 0.1 M dithiothreitol)?
The value was “could not be reversed”.

What about the “decrease in total cellular glutathione” value [5] of the same molecule?
The value was “ca. 60%”.

What does the source list for `COc1cc(/C=C/C(=O)N2CCC=C(C#CC3CC3)C2=O)cc(OC)c1OC` [compound 5, (E)-3-(cyclopropylethynyl)-1-(3-(3,4,5-trimethoxyphenyl)prop-2-enoyl)-5,6-dihydropyridin-2(1H)-one]?
EC50 [1, 10]: 0.7 µM; EC50 [2, 11]: 1.3 µM; elevation of protein glutathionylation (in words) [4]: large and rapid elevations in protein glutathionylation

For `COc1cc2c(c(OC)c1OC)CCC(C(=O)N1CCC=CC1=O)=C2` [compound 29, 1-(5,6,7-trimethoxy-3,4-dihydronaphthalene-2-carbonyl)-5,6-dihydropyridin-2(1H)-one], which EC50 [1, 12] is on record?
The EC50 was 14 µM.

What about the EC50 [2, 13] of the same molecule?
Its EC50 is > 20 µM.

What about the “viability / cellular toxicity (in words)” value [6] of the same molecule?
Its value is “diminished cell death relative to PL”.

And the “elevation of ROS levels (in words)” value [7]?
Its value is “robust enhancement of ROS levels”.

What about the “elevation of protein glutathionylation (in words)” value [4] of the same molecule?
The value was “minimal elevation”.

And the “decrease in total cellular glutathione” value [5]?
The value was “ca. 60%”.

What does the source list for `COc1cc(/C=C/C(=O)N2CCCCC2=O)cc(OC)c1OC` [compound 2, 1-[(2E)-3-(3,4,5-trimethoxyphenyl)prop-2-enoyl]piperidin-2-one]?
EC50 [1, 10]: > 20 µM; EC50 [1, 12]: > 20 µM; EC50 [2, 11]: > 20 µM; EC50 [2, 13]: > 20 µM; elevation of ROS levels (in words) [7]: neither elevated ROS levels

For `COc1cc(/C=C/C(=O)N2CCC=C(C#CCN(C)C)C2=O)cc(OC)c1OC` [(E)-3-(3-(dimethylamino)prop-1-ynyl)-1-(3-(3,4,5-trimethoxyphenyl)prop-2-enoyl)-5,6-dihydropyridin-2(1H)-one], which “stability at room temperature” value [8] is on record?
The value was “decomposes slowly at room temperature”.

For `O=C1C=CCCN1S(=O)(=O)/C=C/c1ccccc1` [compound 52, 1-{[(E)-2-phenylvinyl]sulfonyl}-5,6-dihydropyridin-2(1H)-one], which EC50 [1, 12] is on record?
Its EC50 is 2.7 µM.

What about the EC50 [2, 13] of the same molecule?
Its EC50 is 4.1 µM.

And the “selective toxicity toward transformed BJ-ELR over BJ fibroblasts (in words)” value [9]?
Its value is “selectivity comparable to PL”.

Which results are given for `COC(=O)CSC1CCN(C(=O)/C=C/c2cc(OC)c(OC)c(OC)c2)C(=O)C1` (stereo not drawn) [compound 25]?
EC50 ([1]; read-out: EC50 H1703; Table 2; cellular ATP levels, 48 h): 7.9 µM; EC50 ([2]; read-out: EC50 HeLa; Table 2; cellular ATP levels, 48 h): > 20 µM; viability / cellular toxicity (in words) [6]: substantially less potent than PL at inducing cancer cell death; elevation of ROS levels (in words) [7]: substantially less potent than PL

With `S=C=NCCc1ccccc1` [Phenethylisothiocyanate, reference compound] as the molecule, how does the “selective toxicity toward transformed BJ-ELR over BJ fibroblasts (in words)” value [9] read?
Its value is “showed selectivity in this assay”.

Which EC50 [1, 14] does the source give for `CCCCCCCCCCC#CC1=CCCN(C(=O)/C=C/c2cc(OC)c(OC)c(OC)c2)C1=O` [compound 57] here?
Its EC50 is 4 µM.

What about the EC50 [2, 15] of the same molecule?
Its EC50 is 9 µM.

For `CCC1=C(C)CN(C(=O)/C=C/c2cc(OC)c(OC)c(OC)c2)C1=O` [compound 21], which EC50 [1, 14] is on record?
Its EC50 is > 20 µM.

And the EC50 [2, 15]?
The EC50 was > 20 µM.
